This note sets out measurements from ChEMBL document CHEMBL4118148, “Design, synthesis and cardiovascular evaluation of some aminoisopropanoloxy derivatives of xanthone” (Bioorg Med Chem, 2018).

Series [1] relates to Rattus norvegicus. In words: Cardiotoxicity in Wistar rat assessed as effect on QTC interval time at 5 mg/kg, iv measured after 1 min (reference value: 136.7 to 146.2 ms). It is filed as toxicity, organism-based. To be noted: in vivo.
Series [2] deals with Rattus norvegicus. The experiment in a line: Cardiotoxicity in Wistar rat assessed as effect on QRS interval time at 5 mg/kg, iv measured after 5 mins (reference value: 16.7 to 20.7 ms). It is filed as toxicity, organism-based. To be noted: in vivo.
In series [3] the test system is Rattus norvegicus. In words: Cardiotoxicity in Wistar rat assessed as effect on QT interval time at 5 mg/kg, iv measured after 5 mins (reference value: 57.7 to 61 ms). It is filed as toxicity, organism-based. To be noted: in vivo.
Series [4] addresses Beta-2 adrenergic receptor (Cavia porcellus, UniProt Q8K4Z4). In words: Antagonist activity at adrenergic beta2 receptor in isolated guinea pig trachea assessed as inhibition of isoprenaline-induced bronchodilation incubated for 20 mins. It is filed as functional. To be noted: read-out: pA2 (converted).
The subject of series [5] is Rattus norvegicus. In words: Cardiotoxicity in Wistar rat assessed as effect on heart rate at 5 mg/kg, iv measured after 15 mins (reference value: 323 to 374.5 bpm). In kind it is toxicity, organism-based. To be noted: in vivo, 0.25 h.
Series [6] has as its system Rattus norvegicus. The experiment in a line: Cardiotoxicity in Wistar rat assessed as effect on PQ interval time at 5 mg/kg, iv measured after 5 mins (reference value: 52 to 57 ms). In kind it is toxicity, organism-based. To be noted: in vivo.
Series [7] deals with Rattus norvegicus. In words: Hypotensive activity in normotensive Wistar rat assessed as diastolic blood pressure at 5 mg/kg, iv measured after 10 mins (reference value: 86.5 to 119.4 mmHg). In kind it is functional.
In series [8] the test system is Rattus norvegicus. In words: Cardiotoxicity in Wistar rat assessed as effect on heart rate at 5 mg/kg, iv measured after 5 mins (reference value: 323 to 374.5 bpm). To be noted: in vivo. In kind it is toxicity, organism-based.
The subject of series [9] is Rattus norvegicus. In words: Cardiotoxicity in Wistar rat assessed as effect on QTC interval time at 5 mg/kg, iv measured after 5 mins (reference value: 136.7 to 146.2 ms). It is filed as toxicity, organism-based. To be noted: in vivo.
Series [10] has as its system Rattus norvegicus. In words: Hypotensive activity in normotensive Wistar rat assessed as systolic blood pressure at 5 mg/kg, iv measured after 30 mins (reference value: 119.2 to 148.6 mmHg). In kind it is functional.
The test system of series [11] is Rattus norvegicus. The experiment in a line: Hypotensive activity in normotensive Wistar rat assessed as systolic blood pressure at 5 mg/kg, iv measured after 5 mins (reference value: 119.2 to 148.6 mmHg). It is filed as functional.
Series [12] deals with Rattus norvegicus. In words: Cardiotoxicity in Wistar rat assessed as effect on QT interval time at 5 mg/kg, iv measured after 15 mins (reference value: 57.7 to 61 ms). To be noted: in vivo, 0.25 h. In kind it is toxicity, organism-based.
Series [13] has as its target Adrenergic receptor alpha-1 (Rattus norvegicus) (UniProt P15823+P23944+P43140). In words: Displacement of [3H][…]prazosin from adrenergic alpha1 receptor in Wistar rat cortex at 10^-5 M incubated for 30 mins by microbeta liquid scintillation counting analysis. (In a radioligand displacement assay an active substance lowers the binding of a labelled ligand.)
The subject of series [14] is Rattus norvegicus. The experiment in a line: Hypotensive activity in normotensive Wistar rat assessed as diastolic blood pressure at 5 mg/kg, iv measured after 5 mins (reference value: 86.5 to 119.4 mmHg). In kind it is functional.
In series [15] the test system is Rattus norvegicus. The experiment in a line: Cardiotoxicity in Wistar rat assessed as effect on PQ interval time at 5 mg/kg, iv measured after 1 min (reference value: 52 to 57 ms). It is filed as toxicity, organism-based. To be noted: in vivo.
In series [16] the test system is Rattus norvegicus. The experiment in a line: Cardiotoxicity in Wistar rat assessed as effect on QT interval time at 5 mg/kg, iv measured after 1 min (reference value: 57.7 to 61 ms). In kind it is toxicity, organism-based. To be noted: in vivo.
The subject of series [17] is Rattus norvegicus. In words: Hypotensive activity in normotensive Wistar rat assessed as reduction in systolic blood pressure administered iv measured after 60 mins. In kind it is functional.
In series [18] the target is Beta-1 adrenergic receptor (Rattus norvegicus, UniProt P18090). In words: Displacement of [3H]-CGP-12177 from adrenergic beta1 receptor in Wistar rat cortex incubated for 60 mins by microbeta liquid scintillation counting analysis.
In series [19] the test system is Rattus norvegicus. The experiment in a line: Hypotensive activity in normotensive Wistar rat assessed as systolic blood pressure at 5 mg/kg, iv measured after 60 mins (reference value: 119.2 to 148.6 mmHg). It is filed as functional.
Series [20] relates to Rattus norvegicus. In words: Cardiotoxicity in Wistar rat assessed as effect on QTC interval time at 5 mg/kg, iv measured after 15 mins (reference value: 136.7 to 146.2 ms). In kind it is toxicity, organism-based. To be noted: in vivo, 0.25 h.
The test system of series [21] is Rattus norvegicus. The experiment in a line: Cardiotoxicity in Wistar rat assessed as effect on heart rate at 5 mg/kg, iv measured after 1 min (reference value: 323 to 374.5 bpm). To be noted: in vivo. It is filed as toxicity, organism-based.
For series [22], the system named is Rattus norvegicus. The experiment in a line: Hypotensive activity in normotensive Wistar rat assessed as diastolic blood pressure at 5 mg/kg, iv measured after 60 mins (reference value: 86.5 to 119.4 mmHg). It is filed as functional.
In series [23] the test system is Rattus norvegicus. The experiment in a line: Hypotensive activity in normotensive Wistar rat assessed as systolic blood pressure at 5 mg/kg, iv measured after 10 mins (reference value: 119.2 to 148.6 mmHg). It is filed as functional.
The test system of series [24] is Rattus norvegicus. In words: Hypotensive activity in normotensive Wistar rat assessed as diastolic blood pressure at 5 mg/kg, iv measured after 20 mins (reference value: 86.5 to 119.4 mmHg). It is filed as functional.
In series [25] the test system is Rattus norvegicus. The experiment in a line: Hypotensive activity in normotensive Wistar rat assessed as systolic blood pressure at 5 mg/kg, iv measured after 20 mins (reference value: 119.2 to 148.6 mmHg). In kind it is functional.
Series [26] deals with Adrenergic receptor alpha-2 (Rattus norvegicus) (UniProt P22086+P19328+P22909). In words: Displacement of [3H]-clonidine from adrenergic alpha2 receptor in Wistar rat cortex at 10^-5 M incubated for 25 mins by microbeta liquid scintillation counting analysis.
The subject of series [27] is Rattus norvegicus. The experiment in a line: Cardiotoxicity in Wistar rat assessed as effect on PQ interval time at 5 mg/kg, iv measured after 15 mins (reference value: 52 to 57 ms). In kind it is toxicity, organism-based. To be noted: in vivo, 0.25 h.
Series [28] deals with Rattus norvegicus. The experiment in a line: Cardiotoxicity in Wistar rat assessed as effect on QRS interval time at 5 mg/kg, iv measured after 15 mins (reference value: 16.7 to 20.7 ms). It is filed as toxicity, organism-based. To be noted: in vivo, 0.25 h.
Series [29] concerns Blood. The experiment in a line: Anti-aggregative activity in Wistar rat whole blood assessed as inhibition of collagen-induced aggregation preincubated for 3 mins followed by collagen induction measured for 6 mins. In kind it is functional, tissue-based.
Series [30] concerns Rattus norvegicus. In words: Cardiotoxicity in Wistar rat assessed as effect on QRS interval time at 5 mg/kg, iv measured after 1 min (reference value: 16.7 to 20.7 ms). In kind it is toxicity, organism-based. To be noted: in vivo.
Series [31] relates to Rattus norvegicus. In words: In vivo inhibition of beta adrenoceptor in Wistar rat assessed as reduction in isoprenaline-induced tachycardia at 5 mg/kg, iv administered as single dose 10 mins prior to isoprenaline injection. In kind it is functional, organism-based.
Series [32] concerns Rattus norvegicus. The experiment in a line: Hypotensive activity in normotensive Wistar rat assessed as diastolic blood pressure at 5 mg/kg, iv measured after 30 mins (reference value: 86.5 to 119.4 mmHg). It is filed as functional.
Series [33] relates to Rattus norvegicus. In words: In vivo inhibition of beta adrenoceptor in Wistar rat assessed as reduction in isoprenaline-induced tachycardia at 1 mg/kg, iv administered as single dose 10 mins prior to isoprenaline injection. It is filed as functional, organism-based.
Series [34] relates to Rattus norvegicus. The experiment in a line: Antiarrhythmic activity in Wistar rat assessed as inhibition of adrenaline-induced premature ventricular extrasystoles administered iv 15 mins prior to adrenaline challenge. It is filed as functional.
The subject of series [35] is Blood. In words: Anti-aggregative activity in Wistar rat whole blood assessed as inhibition of collagen/adrenaline-induced aggregation up to 100 uM preincubated for 3 mins followed by collagen induction measured for 6 mins. It is filed as functional, tissue-based.
Series [36] deals with Blood. In words: Anti-aggregative activity in Wistar rat whole blood assessed as inhibition of collagen-induced aggregation up to 100 uM preincubated for 3 mins followed by collagen induction measured for 6 mins. It is filed as functional, tissue-based.
The species entered for series [37] is Rattus norvegicus. In words: (§1) Inhibition of voltage gated calcium channel in Wistar rat aorta assessed as relaxation of KCl-precontracted aortic rings by measuring reduction in calcium entry in presence of phentolamine.
Series [38] can be described thus: as §1.

Active and inactive are the calls of the source. The rule behind the calls is not given here.

Chain of Beta-1 adrenergic receptor (P18090 whole entry): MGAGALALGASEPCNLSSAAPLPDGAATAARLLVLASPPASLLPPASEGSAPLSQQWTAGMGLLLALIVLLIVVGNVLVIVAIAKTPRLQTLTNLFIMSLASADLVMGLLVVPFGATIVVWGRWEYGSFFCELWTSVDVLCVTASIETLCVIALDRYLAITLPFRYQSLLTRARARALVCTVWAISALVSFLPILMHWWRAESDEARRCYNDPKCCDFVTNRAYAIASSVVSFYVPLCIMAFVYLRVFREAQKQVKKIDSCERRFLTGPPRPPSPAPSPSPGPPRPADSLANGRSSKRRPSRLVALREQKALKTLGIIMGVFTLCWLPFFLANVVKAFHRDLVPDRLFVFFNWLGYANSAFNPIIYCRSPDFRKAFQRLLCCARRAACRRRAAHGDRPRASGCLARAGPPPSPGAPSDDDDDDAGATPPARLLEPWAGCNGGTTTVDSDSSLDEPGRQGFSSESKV
Chain of Beta-2 adrenergic receptor (Q8K4Z4 whole entry): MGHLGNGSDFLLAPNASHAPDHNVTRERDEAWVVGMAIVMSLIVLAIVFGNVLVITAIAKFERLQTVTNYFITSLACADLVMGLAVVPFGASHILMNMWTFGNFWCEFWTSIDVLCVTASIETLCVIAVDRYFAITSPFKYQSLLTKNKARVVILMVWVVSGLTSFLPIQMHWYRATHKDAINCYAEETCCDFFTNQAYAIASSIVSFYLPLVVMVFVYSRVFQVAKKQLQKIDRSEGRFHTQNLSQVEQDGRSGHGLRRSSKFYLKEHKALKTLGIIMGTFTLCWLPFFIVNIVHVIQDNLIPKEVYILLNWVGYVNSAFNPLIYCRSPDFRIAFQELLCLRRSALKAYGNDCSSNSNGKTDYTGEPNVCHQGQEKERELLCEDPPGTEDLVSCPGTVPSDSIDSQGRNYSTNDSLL

Usually IC50 stands for the point on the concentration scale where inhibition reaches its midpoint. The term inhibition denotes the change of the read-out against control, counted positive when it falls. Turning to `Cc1cccc2c(=O)c3ccc(OCC(O)CNC(C)(C)C)cc3oc12.Cl` (racemic), the Time with Rattus norvegicus [1] turned out to be 139.8 ms; in the series with Rattus norvegicus [2], 18.2 ms; in the series with Rattus norvegicus [3] it was 59.5 ms; in the series with Rattus norvegicus [6], 59.5 ms; in the series with Rattus norvegicus [9] it was 135.2 ms; in the series on Rattus norvegicus [12], 58.5 ms. For the same compound, the Time with Rattus norvegicus [15] was 60.5 ms; with Rattus norvegicus [16] it was 59 ms; with Rattus norvegicus [20] it was 138.9 ms; with Rattus norvegicus [27], 55.5 ms; in the series on Rattus norvegicus [28], 18.5 ms; with Rattus norvegicus [30], 18 ms. Further, the Kb in [4] was 0.655 µM. Also, the Activity turned out to be 339.2 bpm with Rattus norvegicus [5]; 125 mmHg with Rattus norvegicus [7]; 310 bpm with Rattus norvegicus [8]; 155.8 mmHg in the series on Rattus norvegicus [10]; 166.6 mmHg in the series on Rattus norvegicus [11]; 129.2 mmHg in the series with Rattus norvegicus [14]. Moreover, the Activity in the series with Rattus norvegicus [19] came out at 144 mmHg; in the series with Rattus norvegicus [21], 337 bpm; in the series on Rattus norvegicus [22] it was 114 mmHg; with Rattus norvegicus [23], 159.2 mmHg; with Rattus norvegicus [24], 126 mmHg; in the series on Rattus norvegicus [25], 160 mmHg. Besides, in the series on Rattus norvegicus [32], the Activity is recorded as 123.8 mmHg. For the same compound, the outcome (in [13]; with Rattus norvegicus [17]; in series [26]) was inactive. The IC50 turned out to be 0.785 µM in series [18] and 62.7 µM in the series on Blood [29]. Also, the inhibition result in the series with Blood [29] was “Dose-dependent effect”. Further, in the series with Rattus norvegicus [31], the inhibition entry is “Active”.

As usually defined, the ED50 is the midpoint of the dose-response relation. For the compound `COc1ccccc1OCCNCC(O)COc1cccc2[nH]c3ccccc3c12` (stereo unspecified) [CARVEDILOL], the inhibition entry in the series on Rattus norvegicus [33] is “Active”. Moreover, the ED50 in the series on Rattus norvegicus [34] is 1.05 mg/kg. Further, the inhibition entry in the series on Blood [35] and with Blood [36] was “inactive” in each case.

Take `CC(C)NCC(O)COc1cccc2ccccc12` (stereo unspecified) [PROPRANOLOL]: in the series on Rattus norvegicus [34], the ED50 came to 0.36 mg/kg.

For `COc1ccc(CCN(C)CCCC(C#N)(c2ccc(OC)c(OC)c2)C(C)C)cc1OC` (stereo unspecified) [VERAPAMIL], the inhibition entry in the series listed under Rattus norvegicus [37] was “Dose-dependent effect”; in the series filed under Rattus norvegicus [37] (concentration not given here), 95%. Also, the IC50 in [38] was 0.0329 µM.
